Columns and labels:
[1] = biological target: T1, BK receptors in human ciliary muscle cells (h-CM) (Homo sapiens, UniProt P30411); test: Functional assay measuring [Ca2+]i mobilization (FLIPR) in h-CM cells; type: cell-based; details: class symbols (in μM), read-out: CaM (EC50)
T1 construct: h-CM cells expressing BK receptors were seeded; endogenous in cells; host or cells: human ciliary muscle (h-CM) cells
T1 sequence (P30411 1-391): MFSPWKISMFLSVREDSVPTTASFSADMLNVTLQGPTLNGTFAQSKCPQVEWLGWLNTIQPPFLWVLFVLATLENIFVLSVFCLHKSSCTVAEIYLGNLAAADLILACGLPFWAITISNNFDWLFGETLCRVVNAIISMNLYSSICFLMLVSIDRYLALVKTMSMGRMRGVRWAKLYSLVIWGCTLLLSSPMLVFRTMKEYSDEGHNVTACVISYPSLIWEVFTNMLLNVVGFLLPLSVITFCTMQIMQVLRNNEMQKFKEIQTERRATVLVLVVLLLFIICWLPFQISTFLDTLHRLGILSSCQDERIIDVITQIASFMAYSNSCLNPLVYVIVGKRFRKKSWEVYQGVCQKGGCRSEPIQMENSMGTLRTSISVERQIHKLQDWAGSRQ
Procedure, shortened: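 Human ciliary muscle cells loaded 1 h at 23 °C with FLIPR calcium dye in HBSS, 20 mM HEPES, 2.5 mM probenecid, pH 7.4. EC50 by 4-parameter fit.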

[2] = biological target: T2, recombinant human bradykinin B2 receptor (Homo sapiens, UniProt P30411); test: [3H]-BK competition radioligand binding to human cloned B2 receptor (CHO cell membranes); details: 0.2 nM [3H]-bradykinin, CHO membranes, 60 min 23° C.; mean ± SEM or single value; Ki from IC50 by Cheng-Prusoff; read-out: [3H]-BK Binding to Human Cloned B2 Receptor (Ki)
T2 construct: expressed in transfected cells; host or cells: Chinese hamster ovary (CHO) cells, membrane homogenates
T2 sequence (P30411 1-391): T1 sequence (P30411 1-391)

[3] = test system: primary human ciliary muscle cells (h-CM); test: Total prostaglandin (PG) release from primary h-CM cells (EIA); type: cell-based; details: Homo sapiens, 1 h, 1 hour at 37° C., class symbols (in μM)
Procedure, shortened: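 Confluent primary h-CM cells, serum-starved (0.8% FBS) 24 h, were exposed to a 9-point concentration series (0.1 nM-10 μM) of bradykinin or BK agonist for 1 hour at 37° C. Total PG released was then quantified by EIA.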

| Compound | EC50 [1] | Ki [2] | EC50 [3] |
| --- | --- | --- | --- |
| CCc1nc2c(OCc3c(Cl)ccc(N(C)C(=O)CNC(=O)CCC4CN=C(NC(C)=O)NC4)c3Cl)cccc2n1Cc1ccccn1 (stereo not drawn) [Compound 61] | < 0.1 µM | 451 nM | > 1 µM |
| COc1nc2c(OCc3c(Cl)ccc(N(C)C(=O)CNC(=O)[C@@H]4CCN(C(=O)OC(C)(C)C)C4)c3Cl)cccc2n1Cc1ccccn1 [Compound 62] | < 0.1 µM | 105 nM | 0.1 to 1 µM |
| COc1nc2c(OCc3c(Cl)ccc(N(C)C(=O)CNC(=O)CCC4CN=C(N)NC4)c3Cl)cccc2n1Cc1ccccn1 (stereo not drawn) [Compound 63] | < 0.1 µM | 1190 nM | > 1 µM |
| CNC(=O)c1ccc(CCC(=O)NCC(=O)N(C)c2ccc(Cl)c(COc3cccc4c3nc(OC)n4Cc3ccccn3)c2Cl)cn1 [Compound 64, 5-(3-((2-((2,4-dichloro-3-(((2-methoxy-1-(pyridin-2-ylmethyl)-1H-benzo[d]imidazol-4-yl)oxy)methyl)phenyl)(methyl)amino)-2-oxoethyl)amino)-3-oxopropyl)-N-methylpicolinamide] | < 0.1 µM | 40.3 nM | < 0.1 µM |
| COc1nc2c(OCc3c(Cl)ccc(N(C)C(=O)CNC(=O)CCc4ccc(C(=O)NCCO)cc4)c3Cl)cccc2n1Cc1ccccn1 [Compound 65] | < 0.1 µM | 98.4 nM | < 0.1 µM |
| CNC(=O)c1ccc(OCC(=O)NCC(=O)N(C)c2ccc(Cl)c(COc3cccc4c3nc(OC)n4Cc3ccccn3)c2Cl)cc1 [Compound 68] | < 0.1 µM | 59.5 nM | 0.1 to 1 µM |
| CNC(=O)c1ccc(C(=O)NCC(=O)N(C)c2ccc(Cl)c(COc3cccc4c3nc(OC)n4Cc3ccccn3)c2Cl)cn1 [Compound 69] | < 0.1 µM | 178 nM | < 0.1 µM |
| COc1nc2c(OCc3c(Cl)ccc(N(C)C(=O)CNC(=O)CCCNC(C)=O)c3Cl)cccc2n1Cc1ccccn1 [Compound 70] | < 0.1 µM | 599 nM | 0.1 to 1 µM |
| CNC(=O)c1ccc(CCC(=O)NCC(=O)N(C)c2ccc(Cl)c(COc3cccc4c(OCc5nccn5C)cc(C)nc34)c2Cl)cc1 [Compound 71] | < 0.1 µM | 17 nM | < 0.1 µM |
| COc1nc2c(OCc3c(Cl)ccc(N(C)C(=O)CNC(=O)CCc4ccc(NC(=O)CN(C)C)nc4)c3Cl)cccc2n1Cc1ccccn1 [Compound 73] | < 0.1 µM | 184 nM | 0.1 to 1 µM |
| COc1nc2c(OCc3c(Cl)ccc(N(C)C(=O)CNC(=O)CCc4ccc(NC(=O)CN)nc4)c3Cl)cccc2n1Cc1ccccn1 [Compound 74, 3-(6-(2-aminoacetamido)pyridin-3-yl)-N-(2-((2,4-dichloro-3-(((2-methoxy-1-(pyridin-2-ylmethyl)-1H-benzo[d]imidazol-4-yl)oxy)methyl)phenyl)(methyl)amino)-2-oxoethyl)propanamide] | < 0.1 µM | 384 nM | 0.1 to 1 µM |
| COc1nc2c(OCc3c(Cl)ccc(N(C)C(=O)CNC(=O)COc4cnc(NC(C)=O)nc4)c3Cl)cccc2n1Cc1ccccn1 [Compound 75] | < 0.1 µM | 544 nM | 0.1 to 1 µM |
| COc1nc2c(OCc3c(Cl)ccc(N(C)C(=O)CNC(=O)CCC4CN=C(N[N+](=O)[O-])NC4)c3Cl)cccc2n1Cc1ccccn1 (stereo not drawn) [Compound 76] | < 0.1 µM | 237 nM | > 1 µM |
| COc1nc2c(OCc3c(Cl)ccc(N(C)C(=O)CNC(=O)CCc4cnc(NC(C)=O)nc4)c3Cl)cccc2n1Cc1ccccn1 [Compound 77] | < 0.1 µM | 229 nM | 0.1 to 1 µM |
| CNC(=O)N1CCOC(CC(=O)NCC(=O)N(C)c2ccc(Cl)c(COc3cccc4c3nc(OC)n4Cc3ccccn3)c2Cl)C1 (stereo not drawn) [Compound 79] | 0.1 to 1 µM | 859 nM | > 1 µM |
| COc1nc2c(OCc3c(Cl)ccc(N(C)C(=O)CNC(=O)CN4CCOC(C(=O)NCCO)C4)c3Cl)cccc2n1Cc1ccccn1 (stereo not drawn) [Compound 80] | < 0.1 µM | 279 nM | 0.1 to 1 µM |
| CNC(=O)C1CNCC(CC(=O)NCC(=O)N(C)c2ccc(Cl)c(COc3cccc4c3nc(OC)n4Cc3ccccn3)c2Cl)C1 (stereo not drawn) [Compound 81] | < 0.1 µM | 108 nM | > 1 µM |
| CNC(=O)c1ccc(CCC(=O)NCC(=O)N(C)c2ccc(Cl)c(COc3cccc4c3nc(OC)n4Cc3nccn3C)c2Cl)cc1 [Compound 82] | < 0.1 µM | 205 nM | > 1 µM |
| CNCc1ccc(CCC(=O)NCC(=O)N(C)c2ccc(Cl)c(COc3cccc4c3nc(OC)n4Cc3ccccn3)c2Cl)cc1 [Compound 83] | < 0.1 µM | 329 nM | > 1 µM |
| COc1nc2c(OCc3c(Cl)ccc(N(C)C(=O)CNC(=O)CN4CCO[C@@H](C(=O)NC5CC5)C4)c3Cl)cccc2n1Cc1ccccn1 [Compound 84] | < 0.1 µM | 78.3 nM | < 0.1 µM |
